From US20110098288A1, “SULFONAMIDES AS ZAP-70 INHIBITORS” (priority 2008, published 2011)
Counter-ions that a name gives are not always drawn.

Assays:
[1] = molecular target: T1, ZAP-70 (Homo sapiens, UniProt P43403); experiment: ZAP-70 kinobeads assay; type: binding; conditions: competition with immobilized aminopyrido-pyrimidine ligand 24 in cell lysate; ZAP-70 detected by dot blot
T1 construct: endogenous in cells; host or cells: cell lysate
T1 sequence (P43403 1-619): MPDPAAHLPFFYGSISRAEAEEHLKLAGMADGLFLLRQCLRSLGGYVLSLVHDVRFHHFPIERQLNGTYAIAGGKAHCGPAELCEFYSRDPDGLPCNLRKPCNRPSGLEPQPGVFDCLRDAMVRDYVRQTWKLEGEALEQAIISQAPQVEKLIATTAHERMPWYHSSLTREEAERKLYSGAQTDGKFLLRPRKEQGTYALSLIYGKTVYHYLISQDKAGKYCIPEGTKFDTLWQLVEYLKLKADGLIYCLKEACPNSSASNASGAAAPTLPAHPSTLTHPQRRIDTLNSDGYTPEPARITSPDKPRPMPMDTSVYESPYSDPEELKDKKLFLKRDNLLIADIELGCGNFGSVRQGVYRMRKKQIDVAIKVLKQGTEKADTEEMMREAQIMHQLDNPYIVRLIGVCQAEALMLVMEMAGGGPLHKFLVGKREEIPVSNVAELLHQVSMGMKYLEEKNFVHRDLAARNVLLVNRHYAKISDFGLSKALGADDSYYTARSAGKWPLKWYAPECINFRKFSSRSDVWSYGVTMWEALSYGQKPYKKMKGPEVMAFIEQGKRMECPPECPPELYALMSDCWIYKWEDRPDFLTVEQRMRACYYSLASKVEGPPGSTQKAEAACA
In short: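 Competition binding format: compounds compete with a bead-immobilized aminopyrido-pyrimidine ligand for ZAP-70 in cell lysate. After bead separation and elution, bound ZAP-70 measured by antibody dot blot with infrared read-out.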

[2] = tested on: Jurkat cells; experiment: Calcium release assay (Fluo-4 flow cytometry after anti-CD3 stimulation); type: cell-based; conditions: Homo sapiens, Jurkat cell line J77, anti-CD3 activation, read-out: IC50 (Calcium ion release in cells)
Procedure: Compounds of the present invention were tested in a Calcium release assay as described below.
The development of fluorescent probes makes it possible to measure the concentration of intracellular free Calcium ions in single living cells. Cells are first loaded with a cell-permeable Ca^2+-sensitive dye, then the test compound is added. Finally, cells are activated through the T cell receptor with an anti-CD3 antibody shortly before data acquisition on the flow cytometer. The release of Ca^2+ is measured as a function of time after cell stimulation. This protocol describes the flow cytometry method using the Fluo-3 and Fluo-4 dyes (Minta et al., 1989, J. Biol. Chem. 264(14):8171-8178) to measure the intracellular Ca^2+ concentration in Jurkat cells (see also June et al., 1997, Measurement of intracellular calcium ions by flow cytometry. In: Current Protocols in Cytometry (1997) Unit 9.8.1-9.8.19, John Wiley & Sons, Inc.).
In general, cells should be handled in the shortest time possible to assure their stability. Therefore the preparation of all materials in advance is highly recommended as well as using any incubation or centrifugation time to prepare the next steps (e.g. preparing compound dilution or starting the flow cytometer).
1) Prepare a work plan indicating the number of samples to be analyzed including controls. 2) Cell harvest: Centrifuge 50 to 100 ml of a Jurkat cell culture for 5 minutes at 1100 rpm. Discard the supernatant, pool the resuspended cell pellets in a single 50 ml Falcon tube, and fill up to 50 ml with PBS—CaCl2 (without FCS). Centrifuge again sample again. 3) Resuspend cell pellet with PBS—CaCl2 (without FCS) to achieve a concentration not lower than 10×10^6 cells/ml. Prepare an adequate dilution to evaluate the cell concentration and count the cells. 4) Separate the volume of cells needed to be loaded (for example […] for 20 samples) in a 50 ml Falcon tube. Fill up with PBS—CaCl2 to 900 μl for 107 cells. 5) Prepare in the dark a 1:1 mix of FLUO-4 (1 mM)+Pluronic F-127 (20%). 5 μl of Fluo-4 are needed per 107 cells. 6) Prepare a 1/10 dilution of this mix with PBS—CaCl2 (in the dark; for example 5 μl Fluo-4+5 μl F-127 completed to 100 μl). 7) Add the dye solution to the cells. […] 8) Incubate the sample for 30 minutes in a cell incubator (37° C., 5% CO2). Mix from time to time. 9) During this time prepare the adequate test compound dilution in PBS—CaCl2 (with 10% FCS). The solution should be 10 times more concentrated than the desired final concentration. Vortex each dilution. Prepare also the antibody dilutions: anti-CD3 (1/200) and GAM (1/25). 10) Label FACS tubes and distribute in the corresponding tube 30 μl of the compound dilution or only buffer for the control tubes. 11) After 30 minutes of incubation wash the cells twice in PBS—CaCl2 (with 10% FCS). During the washing steps make sure that the flow cytometer is already “ON” in order to warm the laser. 12) Resuspend the cell pellet in PBS—CaCl2 (with 10% FCS) at a concentration of 1.5×10^6 cells/ml. 13) Distribute 300 μl of cell suspension into the FACS tubes and mix gently. The compound incubation is starting. Keep samples at room temperature in the dark. 14) Open the settings of the cytometer. It is advised to have a template ready which is used for all measurements. Settings of the machine should also be the same from one experiment to the other which permits to evaluate the reproducibility of the cell preparation. 15) In Setup modus control your cell preparation on the cytometer. Cells should fit in the pre-defined gates. 16) During the compound incubation time, check also that cells are responding to the anti-CD3 activation as expected. Set a timer at 8 sec. Add 6 μl of anti-CD3 dilution (0.2 μg/ml final) and mix gently. Add 1 μl of GAM dilution (0.75 μg/ml final) and mix gently. Incubate the samples in water bath at 37° C. while starting timer. After 8 seconds of incubation, acquire data at medium speed for 200 seconds. […]

Structure (SMILES) | IC50 [1] [nM] | IC50 [2] [nM]
CS(=O)(=O)Nc1ccccc1Nc1nc(Nc2cccc(OCCN3CCCCC3)c2)ncc1F [Example 79, N-(2-(5-fluoro-2-(3-(2-(piperidin-1-yl)ethoxy)phenylamino)pyrimidin-4-ylamino)phenyl)methanesulfonamide formate] | < 100 | < 100
COc1cc(Nc2ncc(F)c(Nc3ccccc3NS(C)(=O)=O)n2)ccc1N1CCCC1 [Example 88, N-(2-(5-fluoro-2-(3-methoxy-4-(pyrrolidin-1-yl)phenylamino)pyrimidin-4-ylamino)phenyl)methanesulfonamide] | 100 to 1000 | 100 to 1000
CS(=O)(=O)Nc1ccccc1Nc1nc(Nc2ccc(NCCN3CCCC3)cc2)ncc1F [Example 93, N-(2-(5-fluoro-2-(4-(2-pyrrolidin-1-yl)ethylamino)phenylamino)pyrimidin-4-ylamino)phenyl)methanesulfonamide formate] | 100 to 1000 | 100 to 1000
COc1cc(Nc2ncc(F)c(Nc3ccccc3NS(C)(=O)=O)n2)cc(OCCN2CCCC2)c1 [Example 94, N-(2-(5-fluoro-2-(3-methoxy-5-(2-(pyrrolidin-1-yl)ethoxy)phenylamino)pyrimidin-4-ylamino)phenyl)methanesulfonamide formate salt] | 100 to 1000 | 100 to 1000
CN1CCCCC1COc1cccc(Nc2ncc(F)c(Nc3ccccc3NS(C)(=O)=O)n2)c1 (stereo not drawn) [Example 97, N-(2-(5-fluoro-2-(3-((1-methylpiperidin-2-yl)methoxy)phenylamino)pyrimidin-4-ylamino)phenyl)methanesulfonamide] | 100 to 1000 | < 100
CN1CCCC(COc2cccc(Nc3ncc(F)c(Nc4ccccc4NS(C)(=O)=O)n3)c2)C1 (stereo not drawn) [Example 98, N-(2-(5-fluoro-2-(3-((1-methylpiperidin-3-yl)methoxy)phenylamino)pyrimidin-4-ylamino)phenyl)methanesulfonamide] | < 100 | 100 to 1000
CCNC(=O)COc1cccc(Nc2ncc(F)c(Nc3ccccc3NS(C)(=O)=O)n2)c1 [Example 101, N-ethyl-2-(3-(5-fluoro-4-(2-(methylsulfonamido)phenylamino)pyrimidin-2-ylamino)phenoxy)acetamide] | 100 to 1000 | 100 to 1000
COc1cc(Nc2ncc(Br)c(Nc3ccccc3NS(C)(=O)=O)n2)ccc1C [Example 104, N-(2-(5-bromo-2-(3-methoxy-4-methylphenylamino)pyrimidin-4-ylamino)phenyl)methanesulfonamide] | 100 to 1000 | 100 to 1000
COc1cc(Nc2ncc(Br)c(Nc3ccccc3NS(C)(=O)=O)n2)cc(OC)c1 [Example 105, N-(2-(5-bromo-2-(3,5-dimethoxyphenylamino)pyrimidin-4-ylamino)phenyl)methanesulfonamide] | 100 to 1000 | < 100
COc1ccc(Nc2ncc(Br)c(Nc3ccccc3NS(C)(=O)=O)n2)cc1 [Example 106, N-(2-(5-bromo-2-(4-methoxyphenylamino)pyrimidin-4-ylamino)phenyl)methanesulfonamide] | 100 to 1000 | 100 to 1000
COc1ccc(Nc2ncc(Br)c(Nc3ccccc3NS(C)(=O)=O)n2)cc1OC [Example 107, N-(2-(5-bromo-2-(3,4-dimethoxyphenylamino)pyrimidin-4-ylamino)phenyl)methanesulfonamide] | < 100 | < 100
Cc1cccc(Nc2nc(Nc3cccc(OCCN4CCCCC4)c3)ncc2F)c1NS(C)(=O)=O [Example 112, N-(2-(5-fluoro-2-(3-(2-(piperidin-1-yl)ethoxy)phenylamino)pyrimidin-4-ylamino)-6-methylphenyl)methanesulfonamide] | < 100 | 100 to 1000
COc1cc(Nc2ncc(F)c(Nc3cccc(C)c3NS(C)(=O)=O)n2)cc(OC)c1OCCN1CCCCC1 [Example 113, N-(2-(2-(3,5-dimethoxy-4-(2-(piperidin-1-yl)ethoxy)phenylamino)-5-fluoropyrimidin-4-ylamino)-6-methylphenyl)methanesulfonamide] | < 100 | 100 to 1000

Results, then the compound that gave them:

IC50 [1] [nM] | IC50 [2] [nM] | Structure (SMILES)
100 to 1000 | 100 to 1000 | CS(=O)(=O)Nc1ccccc1Nc1nc(Nc2ccc(OCCN3CCOCC3)cc2)ncc1F [Example 86, N-(2-(5-fluoro-2-(4-(2-morholinoethoxy)phenylamino)pyrimidin-4-ylamino)phenyl)methanesulfonamide]
100 to 1000 | < 100 | CS(=O)(=O)Nc1ccccc1Nc1nc(Nc2ccc(OCCN3CCCCC3)cc2)ncc1F [Example 87]
100 to 1000 | 100 to 1000 | CN1CCN(CCOc2ccc(Nc3ncc(F)c(Nc4ccccc4NS(C)(=O)=O)n3)cc2)CC1 [Example 89, N-(2-(5-Fluoro-2-(4-(2-(4-methylpiperazin-1-yl)ethoxy)phenylamino)pyrimidin-4-ylamino)phenyl)methanesulfonamide]
100 to 1000 | 100 to 1000 | CS(=O)(=O)Nc1ccccc1Nc1nc(Nc2ccc(OCCCN3CCCCC3)cc2)ncc1F [Example 90]
100 to 1000 | 100 to 1000 | CN1CCN(CCCOc2ccc(Nc3ncc(F)c(Nc4ccccc4NS(C)(=O)=O)n3)cc2)CC1 [Example 91, N-(2-(5-fluoro-2-(4-(3-(4-methylpiperazin-1-yl)propoxy)phenylamino)pyrimidin-4-ylamino)phenyl)methanesulfonamide]
100 to 1000 | 100 to 1000 | CS(=O)(=O)Nc1ccccc1Nc1nc(Nc2ccc(OCCCN3CCCC3)cc2)ncc1F [Example 92]
< 100 | 100 to 1000 | CS(=O)(=O)Nc1ccccc1Nc1nc(Nc2cccc(OCCN3CCCC3)c2)ncc1F [Example 95, N-(2-(5-fluoro-2-(3-(2-(pyrrolidin-1-yl)ethoxy)phenylamino)pyrimidin-4-ylamino)phenyl)methanesulfonamide]
100 to 1000 | 100 to 1000 | CS(=O)(=O)Nc1ccccc1Nc1nc(Nc2ccc(OCCN3CCCC3)cc2)ncc1F [Example 96, N-(2-(5-fluoro-2-(4-(2-(pyrrolidin-1-yl)ethoxy)phenylamino)pyrimidin-4-ylamino)phenyl)methanesulfonamide]
